Source: US11999715B2, “ASK1 inhibiting agents” (BIOGEN MA INC., priority 2018, dated 2024)
pIC50: −log10 of the molar value.

Legend:
[1] = target: T1, ASK1 T838 auto phosphorylation (Homo sapiens, UniProt Q99683); assay: ASK1 (AUTO PHOS T838) assay, MSD format, in HEK-293T cells transfected with ASK1-V5; type: cell-based; settings: ASK1 T838 auto phosphorylation in HEK-293T cells, 1 hr compound incubation; class symbols
T1 sequence (Q99683 1-1374): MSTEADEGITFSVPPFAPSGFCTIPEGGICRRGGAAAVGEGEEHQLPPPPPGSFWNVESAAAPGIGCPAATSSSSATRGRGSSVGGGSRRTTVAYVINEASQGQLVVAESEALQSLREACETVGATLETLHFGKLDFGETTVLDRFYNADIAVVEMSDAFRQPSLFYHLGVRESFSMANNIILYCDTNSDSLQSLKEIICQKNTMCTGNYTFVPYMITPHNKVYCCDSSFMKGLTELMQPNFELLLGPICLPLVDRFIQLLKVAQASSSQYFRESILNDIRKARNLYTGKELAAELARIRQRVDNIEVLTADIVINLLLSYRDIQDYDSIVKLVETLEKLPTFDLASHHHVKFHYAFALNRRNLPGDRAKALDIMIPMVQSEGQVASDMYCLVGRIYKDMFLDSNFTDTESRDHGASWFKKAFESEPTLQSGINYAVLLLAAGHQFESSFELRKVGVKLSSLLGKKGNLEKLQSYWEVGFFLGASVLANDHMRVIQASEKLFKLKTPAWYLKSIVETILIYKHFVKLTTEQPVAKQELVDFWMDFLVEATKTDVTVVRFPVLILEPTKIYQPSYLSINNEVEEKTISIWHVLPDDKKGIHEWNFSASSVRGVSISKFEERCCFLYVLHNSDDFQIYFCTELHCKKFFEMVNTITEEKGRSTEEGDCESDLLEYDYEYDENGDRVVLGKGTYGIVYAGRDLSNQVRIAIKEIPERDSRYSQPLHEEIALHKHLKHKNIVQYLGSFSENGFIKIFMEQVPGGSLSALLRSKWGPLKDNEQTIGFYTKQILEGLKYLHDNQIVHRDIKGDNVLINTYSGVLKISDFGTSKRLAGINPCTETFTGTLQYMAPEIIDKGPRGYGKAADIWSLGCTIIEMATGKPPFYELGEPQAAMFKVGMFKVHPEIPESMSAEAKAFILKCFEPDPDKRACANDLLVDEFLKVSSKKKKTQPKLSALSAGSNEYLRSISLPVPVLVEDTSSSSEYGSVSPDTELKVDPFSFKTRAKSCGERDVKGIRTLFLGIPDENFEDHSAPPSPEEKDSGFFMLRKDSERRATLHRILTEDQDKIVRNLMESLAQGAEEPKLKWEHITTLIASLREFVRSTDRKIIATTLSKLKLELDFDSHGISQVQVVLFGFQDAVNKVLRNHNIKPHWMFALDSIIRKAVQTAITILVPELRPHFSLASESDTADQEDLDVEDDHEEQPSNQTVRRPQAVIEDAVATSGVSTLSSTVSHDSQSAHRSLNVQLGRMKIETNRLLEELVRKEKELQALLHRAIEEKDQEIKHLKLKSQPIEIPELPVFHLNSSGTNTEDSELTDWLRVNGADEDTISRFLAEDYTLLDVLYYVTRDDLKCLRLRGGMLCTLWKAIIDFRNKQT
How it was run: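 HEK-293T cells transiently transfected with full-length ASK1-V5 plasmid were replated, then treated 1 h at 37 °C with a 10-point, 3-fold series from 20 μM. Lysates were probed by MSD with anti-pASK1 T838 and a sulfo-tag secondary, read by chemiluminescence. IC50 came from a 4-parameter fit of normalized % activity.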

ASK1/MAP3K5 = target: T2, ASK1/MAP3K5 (Homo sapiens, UniProt Q99683); assay: ASK1/MAP3K5 kinase assay by Reaction Biology Corp. (headed ASK1 TR-FRET Assay); type: biochemical; settings: 20 μM myelin basic protein, 10 μM ATP, class symbols
T2 sequence (Q99683 1-1374): T1 sequence (Q99683 1-1374)
How it was run: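 Radiometric filter-binding assay with ASK1/MAP3K5, 20 μM MBP substrate and 10 μM ATP plus ^33P-ATP in HEPES pH 7.5 buffer with 1% DMSO. Compounds were preincubated with kinase 20 min, and the reaction then ran 2 hours at room temperature.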

Row | Structure (SMILES) | pIC50 [1] | pIC50 (ASK1/MAP3K5)
1 | COc1nn(-c2cncc(O)c2)cc1C(=O)Nc1cccc(-c2nncn2C(C)C)n1 [Example 70, 1-(5-Hydroxypyridin-3-yl)-N-(6-(4-isopropyl-4H-1,2,4-triazol-3-yl)pyridin-2-yl)-3-methoxy-1H-pyrazole-4-carboxamide] | 5.00 to 6.00 | ≥ 7.00
2 | CC(C)n1cnnc1-c1cccc(NC(=O)c2cn(-c3cncc(C4CC4)c3)nc2C(F)F)n1 [Example 77, 1-(5-Cyclopropylpyridin-3-yl)-3-(difluoromethyl)-N-(6-(4-isopropyl-4H-1,2,4-triazol-3-yl)pyridin-2-yl)-1H-pyrazole-4-carboxamide] | ≥ 6.00 | ≥ 7.00
3 | COc1cncc(-n2cc(C(=O)Nc3cccc(-c4nncn4C(C)C)n3)c(C(F)F)n2)c1 [Example 78, 3-(Difluoromethyl)-N-(6-(4-isopropyl-4H-1,2,4-triazol-3-yl)pyridin-2-yl)-1-(5-methoxypyridin-3-yl)-1H-pyrazole-4-carboxamide] | ≥ 6.00 | ≥ 7.00
4 | CC(C)n1cnnc1-c1cccc(NC(=O)c2cn(-c3cncc(N(C)C)c3)nc2C(F)F)n1 [Example 79, 3-(Difluoromethyl)-1-(5-(dimethylamino)pyridin-3-yl)-N-(6-(4-isopropyl-4H-1,2,4-triazol-3-yl)pyridin-2-yl)-1H-pyrazole-4-carboxamide] | ≥ 6.00 | ≥ 7.00
5 | CC(C)n1cnnc1-c1cccc(NC(=O)c2cn(-c3cncc(O)c3)nc2C(F)F)n1 [Example 80, 3-(Difluoromethyl)-1-(5-hydroxypyridin-3-yl)-N-(6-(4-isopropyl-4H-1,2,4-triazol-3-yl)pyridin-2-yl)-1H-pyrazole-4-carboxamide] | ≥ 6.00 | ≥ 7.00
6 | CC(C)Oc1cncc(-n2cc(C(=O)Nc3cccc(-c4nncn4C(C)C)n3)c(C(F)F)n2)c1 [Example 81, 3-(Difluoromethyl)-1-(5-isopropoxypyridin-3-yl)-N-(6-(4-isopropyl-4H-1,2,4-triazol-3-yl)pyridin-2-yl)-1H-pyrazole-4-carboxamide] | ≥ 6.00 | ≥ 7.00
7 | CC(C)n1cnnc1-c1cccc(NC(=O)c2cn(-c3cccnc3)nc2C(F)F)n1 [Example 82, 3-(Difluoromethyl)-N-(6-(4-isopropyl-4H-1,2,4-triazol-3-yl)pyridin-2-yl)-1-(pyridin-3-yl)-1H-pyrazole-4-carboxamide] | ≥ 6.00 | ≥ 7.00
8 | COc1nn(-c2cccnn2)cc1C(=O)Nc1cccc(-c2nncn2C(C)C)n1 [Example 84, N-(6-(4-Isopropyl-4H-1,2,4-triazol-3-yl)pyridin-2-yl)-3-methoxy-1-(pyridazin-3-yl)-1H-pyrazole-4-carboxamide] | ≥ 6.00 | ≥ 7.00
9 | COc1nn(-c2cccnn2)cc1C(=O)Nc1cccc(-c2nncn2[C@@H](C)C(F)(F)F)n1 [Example 85, (S)-3-Methoxy-1-(pyridazin-3-yl)-N-(6-(4-(1,1,1-trifluoropropan-2-yl)-4H-1,2,4-triazol-3-yl)pyridin-2-yl)-1H-pyrazole-4-carboxamide] | ≥ 6.00 | ≥ 7.00
10 | COc1nn(-c2cccnn2)cc1C(=O)Nc1cccc(-c2nncn2[C@H](C)C(F)(F)F)n1 [Example 86, (R)-3-Methoxy-1-(pyridazin-3-yl)-N-(6-(4-(1,1,1-trifluoropropan-2-yl)-4H-1,2,4-triazol-3-yl)pyridin-2-yl)-1H-pyrazole-4-carboxamide] | 5.00 to 6.00 | 6.00 to 7.00
11 | COc1nn(-c2cnccn2)cc1C(=O)Nc1cccc(-c2nncn2[C@@H](C)C(F)(F)F)n1 [Example 87, (S)-3-Methoxy-1-(pyrazin-2-yl)-N-(6-(4-(1,1,1-trifluoropropan-2-yl)-4H-1,2,4-triazol-3-yl)pyridin-2-yl)-1H-pyrazole-4-carboxamide] | ≥ 6.00 | ≥ 7.00

Other lines, results leading:

Row | pIC50 [1] | pIC50 (ASK1/MAP3K5) | Structure (SMILES)
12 | ≥ 6.00 | ≥ 7.00 | C=CCn1cc(C(=O)Nc2cccc(-c3nncn3C(C)C)n2)c(OC)n1 [Example 55, 1-Allyl-N-(6-(4-isopropyl-4H-1,2,4-triazol-3-yl)pyridin-2-yl)-3-methoxy-1H-pyrazole-4-carboxamide]
13 | ≥ 6.00 | ≥ 7.00 | C=CCn1cc(C(=O)Nc2cccc(-c3nncn3[C@@H](C)C(F)(F)F)n2)c(OC)n1 [Example 57, (S)-1-Allyl-3-methoxy-N-(6-(4-(1,1,1-trifluoropropan-2-yl)-4H-1,2,4-triazol-3-yl)pyridin-2-yl)-1H-pyrazole-4-carboxamide]
14 | ≥ 6.00 | ≥ 7.00 | CCCn1cc(C(=O)Nc2cccc(-c3nncn3C(C)C(F)(F)F)n2)c(OC)n1 (centres unmarked) [Example 59, 3-Methoxy-1-propyl-N-(6-(4-(1,1,1-trifluoropropan-2-yl)-4H-1,2,4-triazol-3-yl)pyridin-2-yl)-1H-pyrazole-4-carboxamide]
15 | ≥ 6.00 | ≥ 7.00 | COc1nn(-c2cc(C#N)ccn2)cc1C(=O)Nc1cccc(-c2nncn2C(C)C)n1 [Example 65, 1-(4-Cyanopyridin-2-yl)-N-(6-(4-isopropyl-4H-1,2,4-triazol-3-yl)pyridin-2-yl)-3-methoxy-1H-pyrazole-4-carboxamide]
16 | ≥ 6.00 | ≥ 7.00 | COc1nn(-c2cncc(C)c2)cc1C(=O)Nc1cccc(-c2nncn2C(C)C)n1 [Example 67, N-(6-(4-Isopropyl-4H-1,2,4-triazol-3-yl)pyridin-2-yl)-3-methoxy-1-(5-methylpyridin-3-yl)-1H-pyrazole-4-carboxamide]
17 | ≥ 6.00 | ≥ 7.00 | COc1nn(-c2cncc(C#N)c2)cc1C(=O)Nc1cccc(-c2nncn2C(C)C)n1 [Example 69, 1-(5-Cyanopyridin-3-yl)-N-(6-(4-isopropyl-4H-1,2,4-triazol-3-yl)pyridin-2-yl)-3-methoxy-1H-pyrazole-4-carboxamide]
18 | ≥ 6.00 | ≥ 7.00 | COc1cncc(-n2cc(C(=O)Nc3cccc(-c4nncn4C(C)C)n3)c(OC)n2)c1 [Example 71, N-(6-(4-Isopropyl-4H-1,2,4-triazol-3-yl)pyridin-2-yl)-3-methoxy-1-(5-methoxypyridin-3-yl)-1H-pyrazole-4-carboxamide]
19 | ≥ 6.00 | ≥ 7.00 | COc1nn(-c2cncc(OC(C)C)c2)cc1C(=O)Nc1cccc(-c2nncn2C(C)C)n1 [Example 72, 1-(5-Isopropoxypyridin-3-yl)-N-(6-(4-isopropyl-4H-1,2,4-triazol-3-yl)pyridin-2-yl)-3-methoxy-1H-pyrazole-4-carboxamide]
20 | ≥ 6.00 | ≥ 7.00 | CC(C)n1cnnc1-c1cccc(NC(=O)c2cn(-c3cncc(Br)c3)nc2C(F)F)n1 [Example 74, 1-(5-Bromopyridin-3-yl)-3-(difluoromethyl)-N-(6-(4-isopropyl-4H-1,2,4-triazol-3-yl)pyridin-2-yl)-1H-pyrazole-4-carboxamide]
21 | ≥ 6.00 | ≥ 7.00 | Cc1cncc(-n2cc(C(=O)Nc3cccc(-c4nncn4C(C)C)n3)c(C(F)F)n2)c1 [Example 75, 3-(Difluoromethyl)-N-(6-(4-isopropyl-4H-1,2,4-triazol-3-yl)pyridin-2-yl)-1-(5-methylpyridin-3-yl)-1H-pyrazole-4-carboxamide]
22 | ≥ 6.00 | ≥ 7.00 | CC(C)n1cnnc1-c1cccc(NC(=O)c2cn(-c3cncc(C#N)c3)nc2C(F)F)n1 [Example 76, 1-(5-Cyanopyridin-3-yl)-3-(difluoromethyl)-N-(6-(4-isopropyl-4H-1,2,4-triazol-3-yl)pyridin-2-yl)-1H-pyrazole-4-carboxamide]
